Data set [1] relates to passive cutaneous anaphylaxis (PCA). The data set can be described thus: PCA response in rats. Format: in vivo, Wistar male rats. Particulars: Rattus norvegicus, read-out: 50% inhibiting dose (ED50) in the rat PCA. As for the experimental part:
[1] PCA response in rats:
Wistar male rats weighing 190-220 g were used. A diluted anti-dinitrophenyl-Ascalis (DNP-As) rat serum (each 0.1 ml) was intracutaneously injected into the back of the animals, by which the animals were passively sensitized. After 48 hours, Evans blue liquid (1.0 ml) containing DNP-As (20 mg, as a protein) was intravenously injected to the animals to induce PCA.
After 30 minutes, rats were killed, and the skin at the response region was peeled off, and the amount of color was measured spectrophotometrically. Test compounds were administered 30 minutes (in case of intraperitoneal injection) or one hour (in case of oral administration) before the challenge with the antigen.
The data of the references: disodium chromoglycate (SDCG) and Tranilast are also shown therein.

For another data set, the system named is SRS-A. The data set can be described thus: Anti-SRS-A action, Magnus method using the isolated guinea pig ileum. Particulars: crude SRS-A after 3 minutes; for IC50: read-out: 50% inhibition concentration. The protocol: The anti-SRS-A activity of the compounds of the present invention was measured by Magnus method using the isolated guinea pig ileum. An extracted ileum of guinea pig was hung within a Magnus vessel which was maintained at 31±1° C. and then pre-treated with mepiramine to remove any effect by histamine. Test compound was administered in a dose of 3×10^-5 to 10^-3 M, and after 3 minutes, a previously prepared crude SRS-A was acted thereto, and then, the shrink rate (%) of the ileum was measured.

The nature of data set [2]: Toxicity test in mice (LD50, Litchfield-Wilcoxon method). Particulars: mouse, in vivo, ip; mortality during 7 days; ddY male mice; read-out: 50% lethal dose (LD50). The protocol: The test compound was suspended in 0.5% carboxymethylcellulose solution, and the suspension was intraperitoneally administered to ddY male mice (weighing 20-25 g, one group: 10 mice). Based on the total mortality during 7 days after the administration of the test compound, the 50% lethal dose (LD50) was calculated by Litchfield-Wilcoxon method. The data of reference (Tranilast) are also shown therein.

Experiment in data set [3]: as above
Particulars: mouse, in vivo, po; mortality during 7 days; ddY male mice; read-out: 50% lethal dose (LD50).

[4] abbreviates: ip, 30 minutes before the challenge with the antigen.
Where [5] appears, read: po, 1 h, p.o., one hour before the challenge with the antigen.

Read-outs that look alike come from different tables or passages of the source. A value given as a limit tells only on which side of the number the result lay.

With `COc1ccc(/C=C/C(=O)Nc2ccccc2C(=O)O)cc1OC` [Tranilast, reference compound], the ED50 (commonly the dose at which the effect has come halfway, by size or by number of responders) in data set [1] (setting [4]) was 40 mg/kg; in data set [1] (setting [5]), 110 mg/kg. For the same compound, in the data set with SRS-A, the IC50 was > 1000 µM. Also, the Inhibition rate in the data set on SRS-A (test compd. 3 × 10^-4 M) is recorded as 32.4%; with SRS-A (test compd. 10^-3 M) it was 48.2%; with SRS-A (test compd. 10^-4 M), 23.5%. Besides, the LD50 (as a rule, the dose at which mortality reaches 50%) at 168 h in data set [2] amounted to 430 mg/kg; in data set [3], 780 mg/kg.
As for `CC(C)Oc1ccccc1Nc1ncc(C(=O)O)c(=O)[nH]1` [Example 50, 1,6-dihydro-2-[b 2-(1-methylethoxy)anilino]-6-oxo-5-pyrimidinecarboxylic acid], the ED50 worked out at 13 mg/kg in data set [1] (setting [4]) and 75 mg/kg in data set [1] (setting [5]).
Consider `CCCCOc1ccccc1Nc1ncc(C(=O)O)c(=O)[nH]1` [Example 51, 1,6-dihydro-2-(2-butoxyanilino)-6-oxo-5-pyrimidinecarboxylic acid], for which the ED50 is 10.7 mg/kg in data set [1] (setting [4]) and 92 mg/kg in data set [1] (setting [5]). The LD50 at 168 h in data set [2] is 1230 mg/kg; in data set [3], > 3000 mg/kg.
In the case of `CCCOc1ccccc1Nc1ncc(C(=O)O)c(=O)[nH]1` [Example 49, 1,6-dihydro-2-(2-propoxyanilino)-6-oxo-5-pyrimidinecarboxylic acid], the ED50 in data set [1] (setting [4]) stood at 11 mg/kg; in data set [1] (setting [5]) it was 22.2 mg/kg. In addition, in the data set on SRS-A, the IC50 was 487 µM. The figures for the Inhibition rate in the data set with SRS-A (test compd. 3 × 10^-4 M), with SRS-A (test compd. 10^-3 M) and in the data set on SRS-A (test compd. 10^-4 M) were 17.9%, 97.3% and 8.1%, respectively. The LD50 at 168 h in data set [2] was 1160 mg/kg; in data set [3] it was > 3000 mg/kg.
For the compound `CC(C)COc1ccccc1Nc1ncc(C(=O)O)c(=O)[nH]1` [Example 52, 1,6-dihydro-2-[2-(2-methylpropoxy)anilino]-6-oxo-5-pyrimidinecarboxylic acid], the ED50 was 4.7 mg/kg in data set [1] (setting [4]) and 39 mg/kg in data set [1] (setting [5]). In the data set with SRS-A, the IC50 is 154 µM. The Inhibition rate with SRS-A (test compd. 3 × 10^-4 M) is listed as 87.9%; in the data set on SRS-A (test compd. 3 × 10^-5 M), 12.2%; in the data set with SRS-A (test compd. 10^-4 M), 26.2%. The LD50 at 168 h in data set [2] is 780 mg/kg; in data set [3], > 3000 mg/kg.
`O=C(O)c1cc(=O)c2c(OCC(O)COc3cccc4oc(C(=O)O)cc(=O)c34)cccc2o1` [DSCG, disodium chromoglycate, reference compound]: the ED50 in data set [1] (setting [4]) was 3.3 mg/kg; in data set [1] (setting [5]), > 200 mg/kg. Moreover, in the data set with SRS-A, the IC50 is > 1000 µM. The Inhibition rate in the data set on SRS-A (test compd. 10^-3 M) came out at 6%.
For `CCOc1ccccc1Nc1ncc(C(=O)O)c(=O)[nH]1` [Example 48, 1,6-dihydro-2-(2-ethoxyanilino)-6-oxo-5-pyrimidinecarboxylic acid], the ED50 in data set [1] (setting [4]) was 20.2 mg/kg; in data set [1] (setting [5]), 98 mg/kg. In addition, the LD50 at 168 h was > 500 mg/kg in data set [2] and > 3000 mg/kg in data set [3].

These data come from US4666915A, “2-anilino-1,6-dihydro-6-oxo-5-pyrimidine-carboxylic acid derivatives, process for the preparation thereof, and antiallergic agent containing the same” (Morishita Pharmaceutical Co. Ltd., priority 1984, dated 1987).
